The text below walks through data of ChEMBL document CHEMBL1149917, “Peptidomimetic growth hormone secretagogues: synthesis and biological activities of analogs varied at the indole nucleus of the prototypical spiropiperidine L-162,752” (Bioorg Med Chem Lett, 1996).

The structures appear in SMILES notation. pEC50: −log10 of the molar value.

For this assay, the species on record is Rattus norvegicus. The experiment in a line: Compound was tested for intrinsic growth hormone(GH) secretory potency in the rat pituitary cell assay. The class given is functional. Conditions: Pituitary gland cell.
What is called pEC50 is −log10 of the EC50, conventionally taken in molar units. Lower therefore signals a large EC50. `CC(C)(N)C(=O)N[C@H](Cc1ccccc1)C(=O)N1CCC2(CCc3ccccc32)CC1`: the pEC50 was 6.60.

On to `CC(C)(N)CC(=O)N[C@H](CCc1ccccc1)C(=O)N1CCC2(CCc3ccccc32)CC1`, for which the pEC50 was less than 6.00.

In turn, `CC(C)(CC(=O)N[C@H](CCc1ccccc1)C(=O)N1CCC2(CCc3ccccc32)CC1)NC[C@H](O)CO` had a pEC50 of 6.77.

For `CC(C)(N)C(=O)N[C@H](CSCc1ccccc1)C(=O)N1CCC2(CCc3ccccc32)CC1`, the pEC50 was 7.19.

On to `C[C@@H](O)CNC(C)(C)CC(=O)N[C@H](CCc1ccccc1)C(=O)N1CCC2(CCc3ccccc32)CC1`, for which the pEC50 was 6.70.

Turning to `C[C@@H](O)CNC(C)(C)CC(=O)N[C@H](COCc1ccccc1)C(=O)N1CCC2(CCc3ccccc32)CC1`, the pEC50 is 6.62.

Regarding `CC(C)(N)CC(=O)N[C@H](COCc1ccccc1)C(=O)N1CCC2(CCc3ccccc32)CC1`, the pEC50 is less than 6.00.

Turning to `CC(C)(N)C(=O)N[C@H](Cc1ccc2ccccc2c1)C(=O)N1CCC2(CCc3ccccc32)CC1`, the negative-log EC50 (pEC50) is 6.05.

`CC(C)(N)C(=O)N[C@H](Cc1cccc2ccccc12)C(=O)N1CCC2(CCc3ccccc32)CC1`: the pEC50 is 5.96.

In turn, `CC(C)(N)C(=O)N[C@H](Cc1csc2ccccc12)C(=O)N1CCC2(CCc3ccccc32)CC1` had a pEC50 of 6.31.
